Reference: ChEMBL document CHEMBL1137659, “Molecular epidemiology of clinical isolates of carbapenem-resistant Acinetobacter spp. from Chinese hospitals” (2007)
In brackets after ≈: the same amount, converted by molar mass.

Assays:
[1] = tested on: Acinetobacter genospecies 3; assay: Antimicrobial activity against imipenem and meropenem-resistant Acinetobacter genospecies 3 isolate PUA7 by CLSI agar dilution method
[2] = tested on: Acinetobacter genospecies 10/11; assay: Antimicrobial activity against imipenem and meropenem-resistant Acinetobacter genospecies 10/11 isolate ZS15 by CLSI agar dilution method
[3] = tested on: Acinetobacter baumannii; assay: Antimicrobial activity against imipenem and meropenem-resistant Acinetobacter baumannii isolate DL34 by CLSI agar dilution method; assay type: functional
[4] = tested on: Acinetobacter baumannii; assay: Antimicrobial activity against imipenem and meropenem-resistant Acinetobacter baumannii isolate PUA1 by CLSI agar dilution method; assay type: functional
[5] = tested on: Acinetobacter baumannii; assay: Antimicrobial activity against imipenem and meropenem-resistant Acinetobacter baumannii isolate BJ52 by CLSI agar dilution method; assay type: functional
[6] = tested on: Acinetobacter baumannii; assay: Antimicrobial activity against imipenem and meropenem-resistant Acinetobacter baumannii isolate FZ84 by CLSI agar dilution method; assay type: functional
[7] = tested on: Acinetobacter baumannii; assay: Antimicrobial activity against imipenem and meropenem-resistant Acinetobacter baumannii isolate PU73 by CLSI agar dilution method; assay type: functional
[8] = tested on: Acinetobacter baumannii; assay: Antimicrobial activity against imipenem and meropenem-resistant Acinetobacter baumannii isolate ZJ36 by CLSI agar dilution method; assay type: functional
[9] = tested on: Acinetobacter baumannii; assay: Antimicrobial activity against imipenem and meropenem-resistant Acinetobacter baumannii isolate JN45 by CLSI agar dilution method; assay type: functional
[10] = tested on: Acinetobacter baumannii; assay: Antimicrobial activity against imipenem and meropenem-resistant Acinetobacter baumannii isolate FW-F1 by CLSI agar dilution method; assay type: functional
[11] = tested on: Acinetobacter genospecies 10/11; assay: Antimicrobial activity against imipenem and meropenem-resistant Acinetobacter genospecies 10/11 isolate ZS5 by CLSI agar dilution method
[12] = tested on: Acinetobacter baumannii; assay: Antimicrobial activity against imipenem and meropenem-resistant Acinetobacter baumannii isolate NJ59 by CLSI agar dilution method; assay type: functional
[13] = tested on: Acinetobacter baumannii; assay: Antimicrobial activity against imipenem and meropenem-resistant Acinetobacter baumannii isolate ZJ32 by CLSI agar dilution method; assay type: functional
[14] = tested on: Acinetobacter genospecies 3 (Acinetobacter genomosp. 3); assay: Antimicrobial activity against imipenem and meropenem-resistant Acinetobacter genospecies 3 isolate PU78 by CLSI agar dilution method; conditions: Acinetobacter genospecies 3, isolate PU78
[15] = tested on: Acinetobacter genospecies 13TU; assay: Antimicrobial activity against imipenem and meropenem-resistant Acinetobacter genospecies 13TU isolate CY6 by CLSI agar dilution method
[16] = tested on: Acinetobacter baumannii; assay: Antimicrobial activity against imipenem and meropenem-resistant Acinetobacter baumannii isolate ZJ58 by CLSI agar dilution method; assay type: functional
[17] = tested on: Acinetobacter phenon 6/ct 13TU; assay: Antimicrobial activity against imipenem and meropenem-resistant Acinetobacter phenon 6/ct 13TU isolate FZ4A18 by CLSI agar dilution method
[18] = tested on: Acinetobacter baumannii; assay: Antimicrobial activity against imipenem and meropenem-resistant Acinetobacter baumannii isolate BJ55 by CLSI agar dilution method; assay type: functional
[19] = tested on: Acinetobacter baumannii; assay: Antimicrobial activity against imipenem and meropenem-resistant Acinetobacter baumannii isolate BJ3-9 by CLSI agar dilution method; assay type: functional
[20] = tested on: Acinetobacter baumannii; assay: Antimicrobial activity against imipenem and meropenem-resistant Acinetobacter baumannii isolate PU4A22 by CLSI agar dilution method; assay type: functional
[21] = tested on: Acinetobacter baumannii; assay: Antimicrobial activity against imipenem and meropenem-resistant Acinetobacter baumannii isolate ZJ49 by CLSI agar dilution method; assay type: functional
[22] = tested on: Acinetobacter baumannii; assay: Antimicrobial activity against imipenem and meropenem-resistant Acinetobacter baumannii isolate PU4A1 by CLSI agar dilution method; assay type: functional
[23] = tested on: Acinetobacter baumannii; assay: Antimicrobial activity against imipenem and meropenem-resistant Acinetobacter baumannii isolate BJ3-23 by CLSI agar dilution method; assay type: functional
[24] = tested on: Acinetobacter phenon 6/ct 13TU (Acinetobacter sp.); assay: Antimicrobial activity against imipenem and meropenem-resistant Acinetobacter phenon 6/ct 13TU isolate PU86 by CLSI agar dilution method
[25] = tested on: Acinetobacter phenon 5; assay: Antimicrobial activity against imipenem and meropenem-resistant Acinetobacter phenon 5 isolate PUA6 by CLSI agar dilution method
[26] = tested on: Acinetobacter baumannii; assay: Antimicrobial activity against imipenem and meropenem-resistant Acinetobacter baumannii isolate CY7 by CLSI agar dilution method; assay type: functional

Structure (SMILES) | MIC [1] [µg/mL] | MIC [2] [µg/mL] | MIC [3] [µg/mL] | MIC [4] [µg/mL] | MIC [5] [µg/mL] | MIC [6] [µg/mL] | MIC [7] [µg/mL] | MIC [8] [µg/mL] | MIC [9] [µg/mL] | MIC [10] [µg/mL] | MIC [11] [µg/mL] | MIC [12] [µg/mL] | MIC [13] [µg/mL] | MIC [14] [µg/mL] | MIC [15] [µg/mL] | MIC [16] [µg/mL] | MIC [17] [µg/mL] | MIC [18] [µg/mL] | MIC [19] [µg/mL] | MIC [20] [µg/mL] | also measured
NCC[C@H](O)C(=O)N[C@@H]1C[C@H](N)[C@@H](O[C@H]2O[C@H](CN)[C@@H](O)[C@H](O)[C@H]2O)[C@H](O)[C@H]1O[C@H]1O[C@H](CO)[C@@H](O)[C@H](N)[C@H]1O [AMIKACIN] | 4 (≈ 6.83 µM) | 256 (≈ 437 µM) | > 256 | 8 (≈ 13.7 µM) | 2 (≈ 3.42 µM) | > 256 | > 256 | 2 (≈ 3.42 µM) | 128 (≈ 219 µM) | > 256 | > 256 | > 256 | > 256 | 1 (≈ 1.71 µM) | 32 (≈ 54.6 µM) | 64 (≈ 109 µM) | 32 (≈ 54.6 µM) | > 256 | > 256 | 128 (≈ 219 µM) | MIC [21]: 256 µg/mL (≈ 437 µM); MIC [22]: > 256 µg/mL; MIC [23]: > 256 µg/mL; MIC [24]: 4 µg/mL (≈ 6.83 µM); MIC [25]: 2 µg/mL (≈ 3.42 µM); MIC [26]: > 256 µg/mL
CC(C)(O/N=C(\C(=O)N[C@@H]1C(=O)N2C(C(=O)[O-])=C(C[n+]3ccccc3)CS[C@H]12)c1csc(N)n1)C(=O)O [CEFTAZIDIME] | > 256 | 16 (≈ 29.3 µM) | 64 (≈ 117 µM) | > 256 | 16 (≈ 29.3 µM) | > 256 | > 256 | 16 (≈ 29.3 µM) | > 256 | > 256 | > 256 | > 256 | 64 (≈ 117 µM) | 4 (≈ 7.32 µM) | > 256 | 16 (≈ 29.3 µM) | > 256 | > 256 | 8 (≈ 14.6 µM) | > 256 | MIC [21]: 32 µg/mL (≈ 58.5 µM); MIC [22]: > 256 µg/mL; MIC [23]: > 256 µg/mL; MIC [24]: > 256 µg/mL; MIC [25]: > 256 µg/mL; MIC [26]: > 256 µg/mL
C[C@@H](O)[C@H]1C(=O)N2C(C(=O)O)=C(SCCNC=N)C[C@H]12 [IMIPENEM ANHYDROUS] | 16 (≈ 53.4 µM) | 64 (≈ 214 µM) | 32 (≈ 107 µM) | 64 (≈ 214 µM) | 32 (≈ 107 µM) | 16 (≈ 53.4 µM) | 64 (≈ 214 µM) | 16 (≈ 53.4 µM) | 32 (≈ 107 µM) | 64 (≈ 214 µM) | 64 (≈ 214 µM) | 16 (≈ 53.4 µM) | 64 (≈ 214 µM) | 16 (≈ 53.4 µM) | 32 (≈ 107 µM) | 16 (≈ 53.4 µM) | 16 (≈ 53.4 µM) | 32 (≈ 107 µM) | 64 (≈ 214 µM) | 64 (≈ 214 µM) | MIC [21]: 32 µg/mL (≈ 107 µM); MIC [22]: 64 µg/mL (≈ 214 µM); MIC [23]: 64 µg/mL (≈ 214 µM); MIC [24]: 16 µg/mL (≈ 53.4 µM); MIC [25]: 64 µg/mL (≈ 214 µM); MIC [26]: 64 µg/mL (≈ 214 µM)
